Measurements: patent publication US11466044B2 (WAYNE STATE UNIVERSITY, priority 2017, dated 2022)
In brackets after ≈: the same amount, converted by molar mass. Like-named read-outs stand apart in the source and are kept apart here.

Assays:
[1] = test system: Klebsiella pneumonia AG215; experiment: MIC by broth microdilution, Klebsiella pneumonia; type: cell-based; conditions: strain AG215 Klebsiella pneumonia
[2] = test system: Enterobacter cloacae AG290; experiment: MIC by broth microdilution, Enterobacter cloacae; type: cell-based; conditions: strain AG290 Enterobacter cloacae
MRSA = experiment: MIC by broth microdilution, MRSA isolates; type: cell-based; conditions: Table 1 (Example 2); for MIC50 MRSA AG38: strain AG38; for MIC50 MRSA AG39: strain AG39; for MIC50 MRSA AG42: strain AG42; for MIC50 MRSA AG44: strain AG44
[3] = test system: E coli carrying specific resistance determinants; experiment: MIC by broth microdilution, E coli carrying specific resistance determinants; type: cell-based; conditions: for MIC50 / MIC: Escherichia coli
E coli wild type = experiment: MIC by broth microdilution, wild type E coli; type: cell-based; conditions: for MIC50 E coli BM13 (AG06) wt: Table 2A (Example 2); for MIC50 E coli pH430 WT: Table 2B (Example 2); for MIC50 E coli AG01: strain AG01; for MIC50 E coli AG01 / MIC50 E coli AG03 / MIC50 E coli AG55: Table 1 (Example 2); for MIC50 E coli AG03: strain AG03; for MIC50 E coli AG55: strain AG55; for MIC AG212 E. coli: strain AG212 E. coli (ATCC25922)
P aeruginosa = experiment: MIC by broth microdilution, P aeruginosa isolates; type: cell-based, Pseudomonas aeruginosa; conditions: for MIC50 P aeruginosa AG31: strain AG31; for MIC50 P aeruginosa AG31 / MIC50 P aeruginosa AG32 / MIC50 P aeruginosa AG33 / MIC50 P aeruginosa AG86 / MIC50: Table 1 (Example 2); for MIC50 P aeruginosa AG32: strain AG32; for MIC50: Pseudomonas aeruginosa
M. smegmatis SZ380 = experiment: MIC by broth microdilution, M. smegmatis; conditions: strain SZ380 Mycobacterium smegmatis
[4] = test system: Acinetobacter baumannii pittii AG225; experiment: MIC by broth microdilution, Acinetobacter baumannii; type: cell-based; conditions: strain AG225 Acinetobacter baumannii pittii
[5] = test system: wild type bacterial ribosomes; experiment: in-vitro translation assay, bacterial ribosomes; type: biochemical; conditions: bacterial ribosome; Table 3 (Example 2); read-out: IC50 Bac
Text: (§1) The antiribosomal activity of these compounds was investigated with cell-free translation assays using both wild type bacterial ribosomes and hybrid ribosomes carrying eukaryotic decoding A sites enabling the prediction of selectivity.

[6] = test system: cytosolic ribosome (human chimeric); type: biochemical; conditions: cytosolic; Table 3 (Example 2); read-out: IC50 Cyt
Text: as §1

[7] = test system: mitochondrial ribosome (human chimeric); type: biochemical; conditions: mitochondrial; Table 3 (Example 2); read-out: IC50 Mit
Text: as §1

[8] = strain AG220 Pseudomonas aeruginosa ATCC27853

SMILES: CCCC(O)C1OC(OC2C(N)CC(N)C(O)C2OC2OC(CO)C(OC3OC(CN)C(O)C(O)C3N)C2O)C(N)C(O)C1O (stereo not drawn) [Compound 142]
- MIC AG215 K. pneumon [1]: 1 µg/mL (≈ 1.52 µM)
- MIC AG290 E. cloacae [2]: 1 µg/mL (≈ 1.52 µM)
- MIC50 MRSA AG38 (MRSA): 4 µg/mL (≈ 6.08 µM)
- MIC50 MRSA AG39 (MRSA): >128 µg/mL
- MIC50 MRSA AG42 (MRSA): >128 µg/mL
- MIC50 MRSA AG44 (MRSA): 2 µg/mL (≈ 3.04 µM)
- MIC50 E coli AG036 ANT(4′,4″) ([3]; Table 2B (Example 2)): 32 to 64 µg/mL
- MIC50 E coli AG037 APH(3′)-III ([3]; Table 2B (Example 2)): >32 µg/mL
- MIC50 E coli AG103 armA ([3]; Table 2B (Example 2)): 1 µg/mL (≈ 1.52 µM)
- MIC50 E coli pH414 AAC(6′)-I ([3]; pH414 AAC(6′)-I, Table 2B (Example 2)): 1 μg/ml
- MIC50 E coli pH415 AAC(6′)-II ([3]; pH415 AAC(6′)-II, Table 2B (Example 2)): 1 μg/ml
- MIC50 E coli pH421 APH(3′)-I ([3]; Table 2B (Example 2)): >32 μg/ml
- MIC50 E coli pH422 APH(3′)-II ([3]; Table 2B (Example 2)): >32 μg/ml
- MIC50 E coli pH423 APH(3)-VI ([3]; Table 2B (Example 2)): >32 μg/ml
- MIC50 E coli pH432 ANT(4′) ([3]; Table 2B (Example 2)): 1 μg/ml
- MIC50 E coli BM13 (AG06) wt (E coli wild type): 1 µg/mL (≈ 1.52 µM)
- MIC50 E coli pH430 WT (E coli wild type): 1 μg/ml
- MIC50 E coli AG01 (E coli wild type): 8 µg/mL (≈ 12.2 µM)
- MIC50 E coli AG03 (E coli wild type): 8 µg/mL (≈ 12.2 µM)
- MIC50 E coli AG55 (E coli wild type): 8 µg/mL (≈ 12.2 µM)
- MIC AG212 E. coli (E coli wild type): 2 µg/mL (≈ 3.04 µM)
- MIC50 P aeruginosa AG31 (P aeruginosa): >128 µg/mL
- MIC50 P aeruginosa AG32 (P aeruginosa): >128 µg/mL
- MIC50 P aeruginosa AG33 (P aeruginosa; strain AG33): >128 µg/mL
- MIC50 P aeruginosa AG86 (P aeruginosa; strain AG86): >128 µg/mL
- MIC AG220 P. aerugin (P aeruginosa; [8]): >32 µg/mL
- MIC SZ380 M. smegmatis (M. smegmatis SZ380): 0.5 µg/mL (≈ 0.76 µM)
- MIC AG225 A. baumannii [4]: 2 µg/mL (≈ 3.04 µM)

SMILES: CCCC(O)C1OC(OC2C(N)CC(N)C(O)C2OC2OC(CO)C(OC3OC(CN)C(O)C(O)C3N)C2O)C(N)C(O)C1O (stereo not drawn) [Compound 143]
- MIC AG215 K. pneumon [1]: 4 µg/mL (≈ 6.08 µM)
- MIC AG290 E. cloacae [2]: 4 to 8 µg/mL
- MIC50 MRSA AG38 (MRSA): 32 to 64 µg/mL
- MIC50 MRSA AG39 (MRSA): >64 µg/mL
- MIC50 MRSA AG42 (MRSA): >64 µg/mL
- MIC50 MRSA AG44 (MRSA): 16 µg/mL (≈ 24.3 µM)
- MIC50 E coli AG036 ANT(4′,4″) ([3]; Table 2B (Example 2)): 64 µg/mL (≈ 97.3 µM)
- MIC50 E coli AG037 APH(3′)-III ([3]; Table 2B (Example 2)): >128 µg/mL
- MIC50 E coli AG103 armA ([3]; Table 2B (Example 2)): 16 to 32 µg/mL
- MIC50 E coli pH421 APH(3′)-I ([3]; Table 2B (Example 2)): >128 μg/ml
- MIC50 E coli pH422 APH(3′)-II ([3]; Table 2B (Example 2)): >128 μg/ml
- MIC50 E coli pH423 APH(3)-VI ([3]; Table 2B (Example 2)): 32-64 μg/ml
- MIC50 E coli pH432 ANT(4′) ([3]; Table 2B (Example 2)): 4 μg/ml
- MIC50 E coli BM13 (AG06) wt (E coli wild type): 4 µg/mL (≈ 6.08 µM)
- MIC50 E coli pH430 WT (E coli wild type): 4 μg/ml
- MIC50 E coli AG01 (E coli wild type): 32 µg/mL (≈ 48.7 µM)
- MIC50 E coli AG03 (E coli wild type): 32 µg/mL (≈ 48.7 µM)
- MIC50 E coli AG55 (E coli wild type): 32 µg/mL (≈ 48.7 µM)
- MIC AG212 E. coli (E coli wild type): 8 µg/mL (≈ 12.2 µM)
- MIC50 P aeruginosa AG31 (P aeruginosa): >64 µg/mL
- MIC50 P aeruginosa AG32 (P aeruginosa): >64 µg/mL
- MIC50 P aeruginosa AG33 (P aeruginosa; strain AG33): >64 µg/mL
- MIC50 P aeruginosa AG86 (P aeruginosa; strain AG86): >64 µg/mL
- MIC AG220 P. aerugin (P aeruginosa; [8]): >128 µg/mL
- MIC SZ380 M. smegmatis (M. smegmatis SZ380): 16 µg/mL (≈ 24.3 µM)
- MIC AG225 A. baumannii [4]: 4 to 8 µg/mL

SMILES: CC1CC(N)C2O[C@H](O[C@@H]3C(N)C[C@@H](N)C(O)[C@H]3O[C@@H]3O[C@H](CO)[C@H](O[C@H]4O[C@@H](CN)[C@@H](O)C(O)C4N)C3O)C(N)[C@@H](O)[C@@H]2O1 (stereo partly drawn) [Compound 139, 4-O-(2′,6′-Diamino-4′,8′-anhydro-2′,6′,7′,9′-tetradeoxy-D-threo-α-D-gluco-nonapyranosyl)-5-O-(β-paramobiosyl)-2-deoxystreptamine.6AcOH]
- MIC ([1]; Klebsiella pneumoniae, read-out: MIC AG215 K. pneumon): 0.5 to 1 µg/mL (≈ 0.764 to 1.53 µM)
- MIC ([2]; read-out: MIC AG290 E. cloacae): 1 µg/mL (≈ 1.53 µM)
- IC50 [5]: 120 nM
- MIC50 MRSA AG38 (MRSA): 4 µg/mL (≈ 6.11 µM)
- MIC50 MRSA AG39 (MRSA): 4 µg/mL (≈ 6.11 µM)
- MIC50 MRSA AG42 (MRSA): 2 µg/mL (≈ 3.05 µM)
- MIC50 MRSA AG44 (MRSA): 2 µg/mL (≈ 3.05 µM)
- IC50 [6]: 19000 nM
- IC50 [7]: 2300 nM
- MIC50 ([3]; read-out: MIC50 E coli AG07 AAC(3), AG07 AAC(3), Table 2A (Example 2)): 4 µg/mL (≈ 6.11 µM)
- MIC50 ([3]; read-out: MIC50 E coli AG09 AAC(6′), AG09 AAC(6′), Table 2A (Example 2)): 2 µg/mL (≈ 3.05 µM)
- MIC50 ([3]; read-out: MIC50 E coli AG036 ANT(4′,4″), AG036 ANT(4′,4″), Table 2A (Example 2)): 2 µg/mL (≈ 3.05 µM)
- MIC50 ([3]; read-out: MIC50 E coli AG036 ANT(4′,4″), AG036 ANT(4′,4″), Table 2B (Example 2)): 0.25 µg/mL (≈ 0.382 µM)
- MIC50 ([3]; read-out: MIC50 E coli AG037 APH(3′)-III, AG037 APH(3′)-III, Table 2B (Example 2)): 8 to 16 µg/mL (≈ 12.2 to 24.4 µM)
- MIC50 ([3]; read-out: MIC50 E coli AG037 APH(3′,5″), AG037 APH(3′,5″), Table 2A (Example 2)): 32 to 64 µg/mL (≈ 48.9 to 97.8 µM)
- MIC50 ([3]; read-out: MIC50 E coli AG103 ArmA, AG103 ArmA, Table 2A (Example 2)): 2 µg/mL (≈ 3.05 µM)
- MIC50 ([3]; read-out: MIC50 E coli AG103 armA, AG103 armA, Table 2B (Example 2)): 0.5 µg/mL (≈ 0.764 µM)
- MIC50 ([3]; read-out: MIC50 E coli AG105 AAC(2′), AG105 AAC(2′), Table 2A (Example 2)): 2 to 4 µg/mL (≈ 3.05 to 6.11 µM)
- MIC50 ([3]; read-out: MIC50 E coli pH414 AAC(6′)-I, pH414 AAC(6′)-I, Table 2B (Example 2)): 1 µg/mL (≈ 1.53 µM)
- MIC50 ([3]; read-out: MIC50 E coli pH415 AAC(6′)-II, pH415 AAC(6′)-II, Table 2B (Example 2)): 1 µg/mL (≈ 1.53 µM)
- MIC50 ([3]; read-out: MIC50 E coli pH421 APH(3′)-I, pH421 APH(3′)-I, Table 2B (Example 2)): > 32 µg/mL
- MIC50 ([3]; read-out: MIC50 E coli pH422 APH(3′)-II, pH422 APH(3′)-II, Table 2B (Example 2)): 8 µg/mL (≈ 12.2 µM)
- MIC50 ([3]; read-out: MIC50 E coli pH423 APH(3)-VI, pH423 APH(3)-VI, Table 2B (Example 2)): 1 to 2 µg/mL (≈ 1.53 to 3.05 µM)
- MIC50 ([3]; read-out: MIC50 E coli pH432 ANT(4′), pH432 ANT(4′), Table 2B (Example 2)): 1 µg/mL (≈ 1.53 µM)
- MIC ([3]; read-out: MIC AAC(6′)): 1 µg/mL (≈ 1.53 µM)
- MIC ([3]; read-out: MIC ANT(4′)): 0.25 µg/mL (≈ 0.382 µM)
- MIC ([3]; read-out: MIC APH(3′)-II): 8 µg/mL (≈ 12.2 µM)
- MIC ([3]; read-out: MIC APH(3′)-VI): 1 to 2 µg/mL (≈ 1.53 to 3.05 µM)
- MIC50 E coli BM13 (AG06) wt (E coli wild type): 1 to 2 µg/mL
- MIC (E coli wild type; Escherichia coli, ATCC25922, strain AG212 E. coli (ATCC25922), read-out: MIC AG212 E. coli): 1 µg/mL (≈ 1.53 µM)
- MIC WT (E coli wild type; WT, Table 3 (Example 2)): 0.5 to 1 µg/mL
- MIC50 E coli pH430 WT (E coli wild type): 0.5-1 μg/ml
- MIC50 E coli AG01 (E coli wild type): 2 µg/mL (≈ 3.05 µM)
- MIC50 E coli AG03 (E coli wild type): 2 µg/mL (≈ 3.05 µM)
- MIC50 E coli AG55 (E coli wild type): 2 µg/mL (≈ 3.05 µM)
- MIC50 (P aeruginosa; strain AG33, read-out: MIC50 P aeruginosa AG33): 128 µg/mL (≈ 196 µM)
- MIC50 (P aeruginosa; strain AG86, read-out: MIC50 P aeruginosa AG86): 128 µg/mL (≈ 196 µM)
- MIC50 P aeruginosa AG31 (P aeruginosa): 32 µg/mL (≈ 48.9 µM)
- MIC50 P aeruginosa AG32 (P aeruginosa): 32 µg/mL (≈ 48.9 µM)
- MIC (P aeruginosa; strain AG220 Pseudomonas aeruginosa ATCC27853, read-out: MIC AG220 P. aerugin): 16 to 32 µg/mL (≈ 24.4 to 48.9 µM)
- MIC SZ380 M. smegmatis (M. smegmatis SZ380): 1 to 2 µg/mL
- MIC [4]: 4 µg/mL (≈ 6.11 µM)
